The values below come from patent US9624228B2, “Inhibitors of ERK and methods of use” (KURA ONCOLOGY, INC., priority 2013, dated 2017).

SMILES strings stand for the structures.

In the first assay the target is ERK2 enzyme (Homo sapiens (Human), UniProt P28482). Put plainly: Inhibition assay of ERK (Z'-LYTE kinase assay, Ser/Thr 3 peptide substrate). In kind it is biochemical. To be noted: In vitro ERK2 enzyme, 100 μM ATP.
ERK2 enzyme, sequence (P28482 whole entry): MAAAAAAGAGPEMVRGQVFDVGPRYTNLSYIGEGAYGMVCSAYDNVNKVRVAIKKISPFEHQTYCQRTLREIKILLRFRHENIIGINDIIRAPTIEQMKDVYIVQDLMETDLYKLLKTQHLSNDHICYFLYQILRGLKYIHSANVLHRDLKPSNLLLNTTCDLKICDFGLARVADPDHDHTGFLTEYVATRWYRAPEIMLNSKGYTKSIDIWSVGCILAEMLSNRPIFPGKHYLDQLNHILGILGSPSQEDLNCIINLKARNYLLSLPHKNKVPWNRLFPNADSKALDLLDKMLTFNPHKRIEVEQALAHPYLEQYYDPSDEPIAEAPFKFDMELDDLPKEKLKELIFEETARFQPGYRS
Take `Cc1ncc(-c2n[nH]c3cc4c(cc23)CN(Cc2cccc(Cl)c2)C(=O)N4)cn1` [Compound 90]: the IC50 is below 50 nM. The same measure, in the same setting: to `Cc1cc(-c2n[nH]c3cc4c(cc23)CN(CCNCc2ccc(F)cc2)C(=O)N4)ccn1` [Compound 175] belongs below 50 nM; to `COc1ncc(-c2n[nH]c3cc4c(cc23)CN(CC2CCN(CC3CC3)CC2)C(=O)N4)cn1` [Compound 82], 250 to 1000 nM.

`Cc1cc(-c2n[nH]c3cc4c(cc23)CN([C@H](C)c2ccc(F)cc2)C(=O)N4)ccn1` [Compound 5]: the IC50 lay within 50 to 250 nM. `Cc1cc(-c2n[nH]c3cc4c(cc23)CN([C@@H]2CCCN(Cc3ccccc3Cl)C2)C(=O)N4)ccn1` [Compound 158]: the IC50 is below 50 nM. Still for that read-out and setting: the same measure for `COc1ccc(-c2n[nH]c3cc4c(cc23)CN(Cc2ccc(F)cc2F)C(=O)N4)cn1` [Compound 87]: below 50 nM. As for `COc1ncc(-c2n[nH]c3cc4c(cc23)CN([C@H](CO)c2cccc(Cl)c2)C(=O)N4)cn1` [Compound 118], the IC50 is below 50 nM.

In turn, `CCC(=O)NCCCN1Cc2cc3c(-c4cnc(OC)nc4)n[nH]c3cc2NC1=O` [Compound 105] returned an IC50 below 50 nM. Still for that read-out and setting: the same measure for `COc1ccc(-c2n[nH]c3cc4c(cc23)CN(CCc2cccc(Cl)c2)C(=O)N4)cn1` [Compound 85]: below 50 nM; for `Cc1cc(-c2n[nH]c3cc4c(cc23)CN([C@@H]2CCCN(CCC(F)(F)F)C2)C(=O)N4)ccn1` [Compound 178]: below 50 nM; for `Cc1cc(-c2n[nH]c3cc4[nH]c(=O)n(Cc5cccc(Cl)c5)c(=O)c4cc23)ccn1` [Compound 24]: 50 to 250 nM.

`Cn1cc(-c2n[nH]c3cc4c(cc23)CN(Cc2ccc(F)c(Cl)c2)C(=O)N4)ccc1=O` [Compound 41] showed an IC50 below 50 nM. For the compound `Cc1cc(-c2n[nH]c3cc4c(cc23)CN([C@@H]2CCCN(CC3CC5CCC3C5)C2)C(=O)N4)ccn1` (stereo partly shown) [Compound 142], the IC50 is below 50 nM. As for `COc1ncccc1CN1CCC[C@@H](N2Cc3cc4c(-c5ccnc(C)c5)n[nH]c4cc3NC2=O)C1` [Compound 150], the IC50 is below 50 nM.

For the compound `COc1cccc(F)c1CN1CCC[C@@H](N2Cc3cc4c(-c5ccnnc5)n[nH]c4cc3NC2=O)C1` [Compound 126], the IC50 was below 50 nM.

Turning to `COc1ncccc1CN1Cc2cc3c(-c4ccnc(C)c4)n[nH]c3cc2NC1=O` [Compound 9], the IC50 was below 50 nM.

Compound `Cc1cc(-c2n[nH]c3cc4c(cc23)CN([C@H](C)c2ccccc2)C(=O)N4)ccn1` [Compound 2, (R)-3-(2-methylpyridin-4-yl)-6-(1-phenylethyl)-5,6-dihydro-1H-pyrazolo[4,3-g]quinazolin-7(8H)-one] showed an IC50 below 50 nM. The same measure, in the same setting: to `Cc1cc(-c2n[nH]c3cc4c(cc23)CN(Cc2ccc(C#N)cc2)C(=O)N4)ccn1` [Compound 39] belongs below 50 nM.

Compound `Cc1cc(-c2n[nH]c3cc4c(cc23)CN([C@@H]2CCCN(Cc3cccc(Cl)c3)C2)C(=O)N4)ccn1` [Compound 156] yielded an IC50 below 50 nM. Compound `N#Cc1ccc(-c2n[nH]c3cc4c(cc23)CN(Cc2cccc(Cl)c2)C(=O)N4)cc1` [Compound 94] showed an IC50 of 50 to 250 nM. For `Cc1cc(-c2n[nH]c3cc4c(cc23)CN([C@@H]2CCCN(C(C)c3ccc(F)cc3)C2)C(=O)N4)ccn1` (stereo partly shown) [Compound 179], the concentration for half-maximal inhibition (IC50) lay in the range of 50 to 250 nM.

`Cc1cc(-c2n[nH]c3cc4c(cc23)CN([C@@H]2CCCN(Cc3cccnc3C(F)(F)F)C2)C(=O)N4)ccn1` [Compound 161]: the IC50 was below 50 nM. Still for that read-out and setting: to `Cc1cc(-c2n[nH]c3cc4[nH]c(=O)c(Cc5ccc(F)cc5)cc4cc23)ccn1` [Compound 21] belongs 50 to 250 nM.

As to `CS(=O)(=O)c1ccc(-c2n[nH]c3cc4c(cc23)CN(Cc2cccc(Cl)c2)C(=O)N4)cc1` [Compound 89], the IC50 is below 50 nM.

`Cc1cc(-c2n[nH]c3cc4c(cc23)CN([C@@H]2CCCN(CCc3cccc(Cl)c3)C2)C(=O)N4)ccn1` [Compound 164] came in with an IC50 below 50 nM.

`Cc1cc(-c2n[nH]c3cc4c(cc23)CN([C@@H]2CCCN(Cc3cccc(F)c3F)C2)C(=O)N4)ccn1` [Compound 185] came in with an IC50 below 50 nM. In the case of `Cc1cc(-c2n[nH]c3cc4[nH]c(=O)c(C(C)c5ccccc5)cc4cc23)ccn1` (stereo not shown) [Compound 22], the IC50 is below 50 nM. Still for that read-out and setting: the same measure for `Cc1cc(-c2n[nH]c3cc4c(cc23)CN([C@@H]2CCCN(CC3(C)CC3)C2)C(=O)N4)ccn1` [Compound 182]: 50 to 250 nM.

As to `Cc1cc(-c2n[nH]c3cc4c(cc23)CN(C2CN(Cc3ccccc3)C2)C(=O)N4)ccn1` [Compound 191], the IC50 is below 50 nM.

The same assay, now with this note: In vitro, ERK2 enzyme 0.47 ng/μL, 100 μM ATP.
`Cc1cc(-c2n[nH]c3cc4c(cc23)CN([C@@H]2CNC[C@H]2c2ccccc2)C(=O)N4)ccn1` (racemic) [Compound 223] returned an IC50 below 50 nM. Still for that read-out and setting: the same measure for `Cc1cc(-c2n[nH]c3cc4c(cc23)CN(C2CN(CC3CC3)C2)C(=O)N4)ccn1` [Compound 198]: 250 to 1000 nM; for `COc1ccc(-c2n[nH]c3cc4[nH]c(=O)c(C5CCCN(Cc6ccccc6)C5)cc4cc23)cn1` (stereo not shown) [Compound 367]: 50 to 250 nM. Compound `COc1ccc(-c2n[nH]c3cc4c(cc23)CN([C@@H]2CCN(CC(F)(F)F)C2)C(=O)N4)cn1` [Compound 277] had an IC50 below 50 nM. `Cc1cc(-c2n[nH]c3cc4c(cc23)CN(CC2CCCCC2)C(=O)N4)ccn1` [Compound 213] returned an IC50 below 50 nM. `Cn1nccc1-c1n[nH]c2cc3c(cc12)CN([C@@H]1CCCN(Cc2ccccc2)C1)C(=O)N3` [Compound 261] came in with an IC50 below 50 nM. The same measure, in the same setting: the same measure for `Cc1cc(-c2n[nH]c3cc4c(cc23)CN(C2CCC2)C(=O)N4)ccn1` [Compound 243]: below 50 nM; for `Cc1cc(-c2n[nH]c3cc4[nH]c(=O)c(CC5CCCCC5)cc4cc23)ccn1` [Compound 266]: below 50 nM; for `Cc1cc(-c2n[nH]c3cc4c(cc23)CN([C@H]2CCN(Cc3ccccc3)C2)C(=O)N4)ccn1` [Compound 301]: below 50 nM. Same read-out and setting: to `Cc1cc(-c2n[nH]c3cc4c(cc23)CN([C@@H]2CN(C)C[C@H]2C(C)C)C(=O)N4)ccn1` (mixture of isomers) [Compound 327] belongs 250 to 1000 nM; to `Cn1cc(-c2n[nH]c3cc4c(cc23)CN([C@@H]2CCCN(Cc3ccccc3)C2)C(=O)N4)cn1` [Compound 285], below 50 nM; to `Cc1cc(-c2n[nH]c3cc4c(cc23)CN([C@@H]2CCCN(CC(F)(F)F)C2)C(=O)N4)cc(C)n1` [Compound 244], below 50 nM. As for `Cc1cc(-c2n[nH]c3cc4c(cc23)CN([C@H]2CCN(CC(F)(F)F)C2)C(=O)N4)ccn1` [Compound 299], the IC50 is below 50 nM.

Compound `C[C@H](c1ccccc1)c1cc2cc3c(NC4CCOCC4)n[nH]c3cc2[nH]c1=O` [Compound 357] gave an IC50 below 50 nM.

Regarding `Cc1cc(-c2n[nH]c3cc4c(cc23)CN(Cc2ccccc2Cl)C(=O)N4)ccn1` [Compound 217], the 50% inhibitory concentration (IC50) was below 50 nM.

In the case of `COc1cc(-c2n[nH]c3cc4c(cc23)CN([C@@H]2CN(CC(F)(F)F)C[C@H]2c2ccccc2)C(=O)N4)ccn1` [Compound 375], the IC50 lay in the range of 50 to 250 nM.

Compound `Cc1cc(-c2n[nH]c3cc4c(cc23)CN([C@@H]2CCCN(CC(=O)C(C)(C)C)C2)C(=O)N4)ccn1` [Compound 203] displayed an IC50 below 50 nM. For `Cc1cc(-c2n[nH]c3cc4c(cc23)CN(CCC2CCOCC2)C(=O)N4)ccn1` [Compound 220], the IC50 is below 50 nM.

In turn, `Cc1cc(-c2n[nH]c3cc4c(cc23)CN([C@@H]2CN(CC(F)(F)F)C[C@H]2C(C)C)C(=O)N4)ccn1` (mixture of isomers) [Compound 322] yielded an IC50 of 50 to 250 nM. In the case of `Cc1cc(-c2n[nH]c3cc4c(cc23)CN(CC2CCCN(Cc3ccccc3)C2)C(=O)N4)ccn1` (stereo not shown) [Compound 208], the IC50 is 50 to 250 nM. `CC(c1ccccc1)c1cc2cc3c(-c4ccnc(N5CCN(C)CC5)c4)n[nH]c3cc2[nH]c1=O` (stereo not shown) [Compound 318] showed an IC50 below 50 nM. Same read-out and setting: to `Cc1cc(-c2n[nH]c3cc4c(cc23)CN(C(C)c2nccs2)C(=O)N4)ccn1` (stereo not shown) [Compound 234] belongs below 50 nM; to `Cc1cc(-c2n[nH]c3cc4c(cc23)CN([C@@H]2CN(CCO)C[C@H]2c2ccccc2)C(=O)N4)ccn1` (mixture of isomers) [Compound 376], below 50 nM; to `Cc1ncc(-c2n[nH]c3cc4c(cc23)CN([C@@H]2CN(CC(F)(F)F)C[C@H]2c2ccccc2)C(=O)N4)cn1` [Compound 349], below 50 nM. `Cc1cc(-c2n[nH]c3cc4c(cc23)CN(Cc2ccc(C(F)(F)F)cc2)C(=O)N4)cc(C)n1` [Compound 233] returned an IC50 below 50 nM. On the same count and under the same terms, to `Cc1ncccc1-c1n[nH]c2cc3[nH]c(=O)c(C(C)c4ccccc4)cc3cc12` (stereo not shown) [Compound 335] belongs below 50 nM. As for `Cn1nccc1-c1n[nH]c2cc3c(cc12)CN([C@@H]1CCN(CC(F)(F)F)C1)C(=O)N3` [Compound 265], the IC50 lay in the range of 50 to 250 nM.

For the compound `Cc1cc(-c2n[nH]c3cc4c(cc23)CN([C@H]2CN(CC(F)(F)F)C[C@@H]2c2ccccc2)C(=O)N4)ccn1` [Compound 303], the IC50 was 250 to 1000 nM. Take `Cc1cc(-c2n[nH]c3cc4c(cc23)CN([C@@H]2CN(CC#N)C[C@H]2c2ccccc2)C(=O)N4)ccn1` (mixture of isomers) [Compound 366]: the IC50 is below 50 nM. Same read-out and setting: to `Cn1nccc1-c1n[nH]c2cc3c(cc12)CN(Cc1cccc(Cl)c1)C(=O)N3` [Compound 235] belongs 50 to 250 nM; to `O=C1Nc2cc3[nH]nc(-c4ccnnc4)c3cc2CN1[C@@H]1CN(CC(F)(F)F)C[C@H]1c1ccccc1` [Compound 340], below 50 nM; to `Cc1cc(-c2n[nH]c3cc4c(cc23)CN(C2CCC(=O)N(Cc3ccccc3)C2)C(=O)N4)ccn1` (stereo not shown) [Compound 232], below 50 nM. Same read-out and setting: to `Cn1cc(-c2n[nH]c3cc4c(cc23)CN([C@@H]2CCCN(Cc3cccs3)C2)C(=O)N4)cn1` [Compound 298] belongs below 50 nM.

Compound `CC(c1ccccc1)c1cc2cc3c(-c4cccnc4)n[nH]c3cc2[nH]c1=O` (stereo not shown) [Compound 330] came in with an IC50 below 50 nM. For `Cc1cc(-c2n[nH]c3cc4c(cc23)CN(Cc2cc(F)cc(F)c2)C(=O)N4)cc(C)n1` [Compound 225], the IC50 was below 50 nM.

Usually IC50 stands for the concentration needed to halve the response being measured.
